Measurements taken from US10870832B2, “Use of small molecules to enhance MAFA expression in pancreatic endocrine cells” (Janssen Biotech, Inc., priority 2014, dated 2020).

Assays:
Test in all cases: Kinase profiling of R428
Type in all cases: biochemical
[1] = target: TrkC(h) (Homo sapiens, UniProt Q16288); settings: 100 μM ATP, lower number = more robust inhibition
Procedure: (§1) The efficiency of the AXL inhibitor R428 for targeting different kinases was assessed by Kinase Profiling Services using 100 μM ATP concentration (EMD Millipore). R428 was tested at 1 and 10 μM. Table IV lists the kinases profiled along with the efficiency in targeting the kinases with a lower number indicating a more robust inhibition of a particular kinase.

[2] = target: FGFR1(h) (Homo sapiens, UniProt P11362); settings: for efficiency in targeting FGFR1(h): 100 μM ATP, lower number = more robust inhibition
Procedure: as §1

[3] = target: ROCK-1(h) (Homo sapiens, UniProt Q13464); settings: 100 μM ATP, lower number = more robust inhibition
Procedure: as §1

[4] = target: CaMKIδ(h) (Homo sapiens, UniProt Q8IU85); settings: 100 μM ATP, lower number = more robust inhibition
Procedure: as §1

[5] = target: SAPK3(h) (Homo sapiens, UniProt P53778); settings: 100 μM ATP, lower number = more robust inhibition
Procedure: as §1

[6] = target: NEK2(h) (Homo sapiens, UniProt P51955); settings: 100 μM ATP, lower number = more robust inhibition
Procedure: as §1

[7] = target: CK2(h) (Homo sapiens, UniProt P68400); settings: 100 μM ATP, lower number = more robust inhibition
Procedure: as §1

[8] = target: T1, Flt3(h) (Homo sapiens, UniProt P36888); settings: for efficiency in targeting Flt3(h): 100 μM ATP, lower number = more robust inhibition
T1 sequence (P36888 27-993): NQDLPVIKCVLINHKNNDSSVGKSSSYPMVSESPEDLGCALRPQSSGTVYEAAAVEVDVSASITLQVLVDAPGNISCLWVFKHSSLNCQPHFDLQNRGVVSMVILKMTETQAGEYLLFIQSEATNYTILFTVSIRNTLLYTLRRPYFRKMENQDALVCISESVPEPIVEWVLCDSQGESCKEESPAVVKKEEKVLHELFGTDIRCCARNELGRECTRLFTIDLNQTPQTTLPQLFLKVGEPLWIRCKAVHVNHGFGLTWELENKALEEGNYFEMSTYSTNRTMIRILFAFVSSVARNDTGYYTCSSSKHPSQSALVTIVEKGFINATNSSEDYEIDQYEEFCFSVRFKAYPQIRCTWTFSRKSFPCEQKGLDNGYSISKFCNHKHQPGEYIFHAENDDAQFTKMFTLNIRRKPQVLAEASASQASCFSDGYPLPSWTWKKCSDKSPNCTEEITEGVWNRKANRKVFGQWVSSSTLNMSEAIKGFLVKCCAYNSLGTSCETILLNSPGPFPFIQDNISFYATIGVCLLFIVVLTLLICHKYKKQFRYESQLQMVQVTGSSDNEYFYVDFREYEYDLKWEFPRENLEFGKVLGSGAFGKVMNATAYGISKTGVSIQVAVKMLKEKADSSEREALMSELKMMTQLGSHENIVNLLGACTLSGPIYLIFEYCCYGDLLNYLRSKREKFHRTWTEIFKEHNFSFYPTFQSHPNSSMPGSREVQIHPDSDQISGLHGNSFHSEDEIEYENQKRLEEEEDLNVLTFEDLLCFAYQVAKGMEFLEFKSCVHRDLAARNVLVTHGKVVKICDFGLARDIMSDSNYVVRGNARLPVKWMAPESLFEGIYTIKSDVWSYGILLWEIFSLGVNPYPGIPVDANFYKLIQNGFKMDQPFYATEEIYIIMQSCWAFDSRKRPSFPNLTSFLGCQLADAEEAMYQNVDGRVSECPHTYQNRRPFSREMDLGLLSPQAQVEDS
Procedure: as §1

[9] = target: SAPK4(h) (Homo sapiens, UniProt O15264); settings: 100 μM ATP, lower number = more robust inhibition
Procedure: as §1

[10] = target: Met(h) (Homo sapiens, UniProt P08581); settings: 100 μM ATP, lower number = more robust inhibition
Procedure: as §1

[11] = target: Pim-2(h) (Homo sapiens, UniProt Q9P1W9); settings: 100 μM ATP, lower number = more robust inhibition
Procedure: as §1

[12] = target: PKCα(h) (Homo sapiens, UniProt P17252); settings: 100 μM ATP, lower number = more robust inhibition
Procedure: as §1

[13] = target: PKBα(h) (Homo sapiens, UniProt P31749); settings: 100 μM ATP, lower number = more robust inhibition, read-out: efficiency in targeting PKBα(h)
Procedure: as §1

[14] = target: GSK3 a(h) (Homo sapiens, UniProt P49840); settings: 100 μM ATP, lower number = more robust inhibition
Procedure: as §1

Sequence of FGFR1(h) (P11362 22-822): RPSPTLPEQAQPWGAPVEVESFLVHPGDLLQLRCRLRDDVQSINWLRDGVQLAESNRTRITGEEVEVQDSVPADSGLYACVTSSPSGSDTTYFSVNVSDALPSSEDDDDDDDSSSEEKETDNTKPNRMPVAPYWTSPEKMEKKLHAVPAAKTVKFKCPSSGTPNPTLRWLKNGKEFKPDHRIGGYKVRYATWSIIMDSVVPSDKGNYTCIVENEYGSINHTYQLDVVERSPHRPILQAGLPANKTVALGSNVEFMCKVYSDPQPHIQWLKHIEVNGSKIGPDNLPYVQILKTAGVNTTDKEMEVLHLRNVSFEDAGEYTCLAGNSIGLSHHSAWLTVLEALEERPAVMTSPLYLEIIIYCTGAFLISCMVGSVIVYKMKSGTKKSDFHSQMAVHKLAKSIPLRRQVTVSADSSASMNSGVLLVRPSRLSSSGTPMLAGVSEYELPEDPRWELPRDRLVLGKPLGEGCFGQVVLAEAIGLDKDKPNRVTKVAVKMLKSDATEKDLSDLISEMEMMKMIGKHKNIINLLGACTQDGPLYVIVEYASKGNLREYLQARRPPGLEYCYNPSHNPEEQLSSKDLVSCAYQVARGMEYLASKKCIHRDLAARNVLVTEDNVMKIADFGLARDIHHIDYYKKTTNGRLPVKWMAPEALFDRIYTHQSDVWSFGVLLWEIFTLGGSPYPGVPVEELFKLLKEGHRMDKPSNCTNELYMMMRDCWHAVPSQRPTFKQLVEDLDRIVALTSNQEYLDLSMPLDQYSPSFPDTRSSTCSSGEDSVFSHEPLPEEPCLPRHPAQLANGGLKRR
Sequence of NEK2(h) (P51955 whole entry): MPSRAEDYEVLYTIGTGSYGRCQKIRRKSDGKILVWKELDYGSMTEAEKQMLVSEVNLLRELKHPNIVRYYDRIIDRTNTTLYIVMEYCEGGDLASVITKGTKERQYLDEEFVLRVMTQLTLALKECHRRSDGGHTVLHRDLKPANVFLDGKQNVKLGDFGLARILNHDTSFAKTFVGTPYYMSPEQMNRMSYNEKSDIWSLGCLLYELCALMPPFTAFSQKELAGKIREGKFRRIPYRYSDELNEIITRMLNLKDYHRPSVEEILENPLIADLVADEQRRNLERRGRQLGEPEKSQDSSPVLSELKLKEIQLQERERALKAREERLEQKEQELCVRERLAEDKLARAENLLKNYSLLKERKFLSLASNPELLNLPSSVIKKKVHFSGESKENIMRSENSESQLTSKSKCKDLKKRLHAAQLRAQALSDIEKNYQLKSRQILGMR
Sequence of SAPK3(h) (P53778 whole entry): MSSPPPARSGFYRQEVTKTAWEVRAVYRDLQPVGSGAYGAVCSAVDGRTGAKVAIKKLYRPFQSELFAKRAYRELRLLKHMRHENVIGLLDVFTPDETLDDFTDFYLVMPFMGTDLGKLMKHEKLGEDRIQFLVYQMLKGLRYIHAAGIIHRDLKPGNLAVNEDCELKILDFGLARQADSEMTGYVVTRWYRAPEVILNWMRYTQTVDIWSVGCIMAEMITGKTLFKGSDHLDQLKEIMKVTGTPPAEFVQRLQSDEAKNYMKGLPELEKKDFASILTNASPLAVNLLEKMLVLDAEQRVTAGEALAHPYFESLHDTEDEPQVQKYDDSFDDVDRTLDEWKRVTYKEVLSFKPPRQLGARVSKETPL
Sequence of TrkC(h) (Q16288 32-839): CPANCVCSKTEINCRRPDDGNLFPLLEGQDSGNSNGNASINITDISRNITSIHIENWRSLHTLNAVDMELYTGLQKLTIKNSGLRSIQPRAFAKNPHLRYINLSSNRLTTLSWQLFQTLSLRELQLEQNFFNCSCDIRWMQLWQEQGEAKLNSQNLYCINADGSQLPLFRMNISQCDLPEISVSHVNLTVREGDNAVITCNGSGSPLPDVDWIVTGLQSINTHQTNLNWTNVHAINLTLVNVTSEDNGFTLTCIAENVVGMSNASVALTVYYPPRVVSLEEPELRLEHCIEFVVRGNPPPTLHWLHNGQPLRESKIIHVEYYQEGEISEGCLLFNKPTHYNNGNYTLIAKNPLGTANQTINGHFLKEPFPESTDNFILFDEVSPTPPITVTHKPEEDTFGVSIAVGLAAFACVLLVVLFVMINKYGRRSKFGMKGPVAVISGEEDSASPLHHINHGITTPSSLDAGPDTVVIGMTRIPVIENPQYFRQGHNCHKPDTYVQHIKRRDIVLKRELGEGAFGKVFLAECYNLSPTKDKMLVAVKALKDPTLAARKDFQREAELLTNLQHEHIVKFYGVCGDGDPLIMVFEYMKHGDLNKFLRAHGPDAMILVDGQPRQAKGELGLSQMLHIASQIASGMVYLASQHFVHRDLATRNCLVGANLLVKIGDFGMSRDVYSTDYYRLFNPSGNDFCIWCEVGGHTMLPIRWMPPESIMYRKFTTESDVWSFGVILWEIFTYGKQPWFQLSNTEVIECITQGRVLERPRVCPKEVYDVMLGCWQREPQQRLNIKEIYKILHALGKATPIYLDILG
Sequence of SAPK4(h) (O15264 whole entry): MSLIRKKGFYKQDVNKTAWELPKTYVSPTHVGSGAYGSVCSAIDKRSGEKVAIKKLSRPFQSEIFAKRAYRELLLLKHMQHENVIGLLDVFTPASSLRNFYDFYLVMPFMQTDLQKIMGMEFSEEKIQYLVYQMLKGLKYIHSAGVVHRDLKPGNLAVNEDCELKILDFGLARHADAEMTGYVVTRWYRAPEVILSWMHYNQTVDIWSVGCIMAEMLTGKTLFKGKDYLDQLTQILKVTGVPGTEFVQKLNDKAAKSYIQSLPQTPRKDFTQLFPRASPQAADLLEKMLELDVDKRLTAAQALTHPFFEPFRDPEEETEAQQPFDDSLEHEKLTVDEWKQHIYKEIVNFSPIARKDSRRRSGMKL
Sequence of ROCK-1(h) (Q13464 whole entry): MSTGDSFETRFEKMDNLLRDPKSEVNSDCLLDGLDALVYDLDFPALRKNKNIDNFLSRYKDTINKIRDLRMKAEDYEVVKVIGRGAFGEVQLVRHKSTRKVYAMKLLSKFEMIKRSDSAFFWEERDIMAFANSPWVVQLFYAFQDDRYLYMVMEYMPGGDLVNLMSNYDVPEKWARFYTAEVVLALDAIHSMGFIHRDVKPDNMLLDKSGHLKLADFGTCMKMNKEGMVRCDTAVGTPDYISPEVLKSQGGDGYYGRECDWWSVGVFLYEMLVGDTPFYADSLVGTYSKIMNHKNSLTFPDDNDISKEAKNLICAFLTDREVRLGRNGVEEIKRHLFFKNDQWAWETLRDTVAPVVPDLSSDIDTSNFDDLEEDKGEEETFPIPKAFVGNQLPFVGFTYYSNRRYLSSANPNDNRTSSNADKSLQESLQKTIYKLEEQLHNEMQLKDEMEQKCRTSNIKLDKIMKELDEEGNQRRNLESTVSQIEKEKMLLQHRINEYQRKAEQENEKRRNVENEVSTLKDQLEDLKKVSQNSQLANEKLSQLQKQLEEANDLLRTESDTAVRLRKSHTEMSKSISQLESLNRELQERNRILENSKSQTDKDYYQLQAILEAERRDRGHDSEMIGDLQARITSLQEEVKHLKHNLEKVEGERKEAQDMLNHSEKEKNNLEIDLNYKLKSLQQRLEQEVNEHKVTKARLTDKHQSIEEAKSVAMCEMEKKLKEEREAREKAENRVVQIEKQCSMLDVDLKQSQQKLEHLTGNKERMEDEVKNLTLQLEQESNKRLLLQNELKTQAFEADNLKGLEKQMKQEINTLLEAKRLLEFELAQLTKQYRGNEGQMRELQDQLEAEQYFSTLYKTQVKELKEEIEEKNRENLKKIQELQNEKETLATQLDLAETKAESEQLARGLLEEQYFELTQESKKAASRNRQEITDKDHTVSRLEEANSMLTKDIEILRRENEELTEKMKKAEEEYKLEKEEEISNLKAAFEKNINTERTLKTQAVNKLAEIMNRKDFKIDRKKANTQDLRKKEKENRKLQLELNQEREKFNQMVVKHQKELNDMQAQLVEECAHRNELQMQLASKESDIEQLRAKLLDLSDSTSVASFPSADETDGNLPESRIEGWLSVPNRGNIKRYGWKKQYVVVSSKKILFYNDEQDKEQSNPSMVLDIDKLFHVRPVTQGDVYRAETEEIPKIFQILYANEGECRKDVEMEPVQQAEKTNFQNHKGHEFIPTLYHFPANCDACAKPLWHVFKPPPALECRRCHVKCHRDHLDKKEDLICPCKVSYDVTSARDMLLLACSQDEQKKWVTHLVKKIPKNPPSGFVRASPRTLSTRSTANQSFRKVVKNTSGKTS

Nc1nc(Nc2ccc3c(c2)CC[C@@H](N2CCCC2)CC3)nn1-c1cc2c(nn1)-c1ccccc1CCC2 [R428, 1H-1,2,4-Triazole-3,5-diamine, 1-(6,7-dihydro-5H-benzo[6,7]cyclohepta[1,2-c]pyridazin-3-yl) N3-[(7S)-6,7,8,9-tetrahydro-7-(1-pyrrolidinyl)-5H-benzocyclohepten-2-yl]-]
efficiency in targeting TrkC(h) ([1]; R428 @ 1 μM): 47
efficiency in targeting TrkC(h) ([1]; R428 @ 10 μM): 13
efficiency in targeting FGFR1(h) ([2]; R428 @ 1 μM): 17
efficiency in targeting FGFR1(h) ([2]; R428 @ 10 μM): 1
inhibition of FGFr1 (in words) ([2]; at 1 and 10 μM): potently inhibits
efficiency in targeting ROCK-1(h) ([3]; R428 @ 1 μM): 93
efficiency in targeting ROCK-1(h) ([3]; R428 @ 10 μM): 41
efficiency in targeting CaMKIδ(h) ([4]; R428 @ 1 μM): 76
efficiency in targeting CaMKIδ(h) ([4]; R428 @ 10 μM): 24
efficiency in targeting SAPK3(h) ([5]; R428 @ 1 μM): 106
efficiency in targeting SAPK3(h) ([5]; R428 @ 10 μM): 108
efficiency in targeting NEK2(h) ([6]; R428 @ 1 μM): 60
efficiency in targeting NEK2(h) ([6]; R428 @ 10 μM): 10
efficiency in targeting CK2(h) ([7]; R428 @ 1 μM): 103
efficiency in targeting CK2(h) ([7]; R428 @ 10 μM): 106
efficiency in targeting Flt3(h) ([8]; R428 @ 1 μM): 9
efficiency in targeting Flt3(h) ([8]; R428 @ 10 μM): 1
inhibition of Flt (in words) ([8]; at 1 and 10 μM): potently inhibits
efficiency in targeting SAPK4(h) ([9]; R428 @ 1 μM): 94
efficiency in targeting SAPK4(h) ([9]; R428 @ 10 μM): 91
efficiency in targeting Met(h) ([10]; R428 @ 1 μM): 49
efficiency in targeting Met(h) ([10]; R428 @ 10 μM): -1
efficiency in targeting Pim-2(h) ([11]; R428 @ 1 μM): 87
efficiency in targeting Pim-2(h) ([11]; R428 @ 10 μM): 74
efficiency in targeting PKCα(h) ([12]; R428 @ 1 μM): 101
efficiency in targeting PKCα(h) ([12]; R428 @ 10 μM): 96
activity at 1 µM ([13]; R428 @ 1 μM): 87%
activity at 10 µM ([13]; R428 @ 10 μM): 57%
efficiency in targeting GSK3 a(h) ([14]; R428 @ 1 μM): 95
efficiency in targeting GSK3 a(h) ([14]; R428 @ 10 μM): 105
